# Laboratory results published in ChEMBL document CHEMBL4304811, “Development of a Water-Soluble Indolylmaleimide Derivative IM-93 Showing Dual Inhibition of Ferroptosis and NETosis” (ACS Med Chem Lett, 2019).
# Active and inactive are the calls of the source. The calls are words filed in the database; no cut-off is given here.
# Assays:
# [1] = target: Casein kinase II subunit alpha (Homo sapiens) (UniProt P68400); experiment: Binding affinity to wild-type human full length CSNK2A1 (M1 to Q391 residues) expressed in mammalian expression system assessed as residual binding level at 10 uM by Kinomescan method relative to control
# [2] = target: Death-associated protein kinase 1 (Homo sapiens) (UniProt P53355); experiment: Binding affinity to wild-type human partial length DAPK1 (M1 to F296 residues) expressed in bacterial expression system assessed as residual binding level at 10 uM by Kinomescan method relative to control
# [3] = target: Death-associated protein kinase 3 (Homo sapiens) (UniProt O43293); experiment: Binding affinity to wild-type human partial length DAPK3 (M1 to A277 residues) expressed in bacterial expression system assessed as residual binding level at 10 uM by Kinomescan method relative to control
# [4] = target: Ephrin type-A receptor 5 (Homo sapiens) (UniProt P54756); experiment: Binding affinity to wild-type human partial length EPHA5 (T627 to V930 residues) expressed in bacterial expression system assessed as residual binding level at 10 uM by Kinomescan method relative to control
# [5] = target: Mitogen-activated protein kinase 6 (Homo sapiens) (UniProt Q16659); experiment: Binding affinity to wild-type human partial length ERK3 (M1 to P413 residues) expressed in bacterial expression system assessed as residual binding level at 10 uM by Kinomescan method relative to control
# [6] = target: Mitogen-activated protein kinase 15 (Homo sapiens) (UniProt Q8TD08); experiment: Binding affinity to wild-type human partial length ERK8 (M1 to P437 residues) expressed in bacterial expression system assessed as residual binding level at 10 uM by Kinomescan method relative to control
# [7] = target: Tyrosine-protein kinase Fer (Homo sapiens) (UniProt P16591); experiment: Binding affinity to wild-type human partial length FER (S542 to T822 residues) expressed in bacterial expression system assessed as residual binding level at 10 uM by Kinomescan method relative to control
# [8] = target: Homeodomain-interacting protein kinase 2 (Homo sapiens) (UniProt Q9H2X6); experiment: Binding affinity to wild-type human partial length HIPK2 (M153 to S564 residues) expressed in mammalian expression system assessed as residual binding level at 10 uM by Kinomescan method relative to control
# [9] = target: Inhibitor of nuclear factor kappa-B kinase subunit epsilon (Homo sapiens) (UniProt Q14164); experiment: Binding affinity to wild-type human full length IKK-epsilon (M1 to V716 residues) expressed in mammalian expression system assessed as residual binding level at 10 uM by Kinomescan method relative to control
# [10] = target: Interleukin-1 receptor-associated kinase 4 (Homo sapiens) (UniProt Q9NWZ3); experiment: Binding affinity to wild-type human partial length IRAK4 (M1 to S460 residues) expressed in mammalian expression system assessed as residual binding level at 10 uM by Kinomescan method relative to control
# [11] = target: Maternal embryonic leucine zipper kinase (Homo sapiens) (UniProt Q14680); experiment: Binding affinity to wild-type human full length MELK (M1 to V651 residues) expressed in bacterial expression system assessed as residual binding level at 10 uM by Kinomescan method relative to control
# [12] = target: Tyrosine-protein kinase Mer (Homo sapiens) (UniProt Q12866); experiment: Binding affinity to wild-type human partial length MERTK (R557 to L884 residues) expressed in bacterial expression system assessed as residual binding level at 10 uM by Kinomescan method relative to control
# [13] = target: Myosin light chain kinase family member 4 (Homo sapiens) (UniProt Q86YV6); experiment: Binding affinity to wild-type human partial length MYLK4 (V79 to S380 residues) expressed in bacterial expression system assessed as residual binding level at 10 uM by Kinomescan method relative to control
# [14] = target: Myosin-IIIb (Homo sapiens) (UniProt Q8WXR4); experiment: Binding affinity to wild-type human partial length MYO3B (M1 to D357 residues) expressed in bacterial expression system assessed as residual binding level at 10 uM by Kinomescan method relative to control
# [15] = target: Serine/threonine-protein kinase PAK 5 (Homo sapiens) (UniProt Q9P286); experiment: Binding affinity to wild-type human partial length PAK7 (Y400 to H719 residues) expressed in bacterial expression system assessed as residual binding level at 10 uM by Kinomescan method relative to control
# [16] = target: Phosphorylase b kinase gamma catalytic chain, liver/testis isoform (Homo sapiens) (UniProt P15735); experiment: Binding affinity to wild-type human partial length PHKG2 (M1 to W300 residues) expressed in bacterial expression system assessed as residual binding level at 10 uM by Kinomescan method relative to control
# [17] = target: Receptor-interacting serine/threonine-protein kinase 1 (Homo sapiens) (UniProt Q13546); experiment: Binding affinity to wild-type human partial length RIPK1 (M1 to K305 residues) expressed in bacterial expression system assessed as residual binding level at 10 uM by Kinomescan method relative to control
# [18] = target: Ribosomal protein S6 kinase alpha-4 (Homo sapiens) (UniProt O75676); experiment: Binding affinity to wild-type human partial length N-terminal RPS6KA4 kinase domain 1 expressed in bacterial expression system assessed as residual binding level at 10 uM by Kinomescan method relative to control
# [19] = target: Ribosomal protein S6 kinase alpha-1 (Homo sapiens) (UniProt Q15418); experiment: Binding affinity to wild-type human partial length N-terminal RSK1 Kinase domain 1 (M1 to E388 residues) expressed in bacterial expression system assessed as residual binding level at 10 uM by Kinomescan method relative to control
# [20] = target: Ribosomal protein S6 kinase alpha-3 (Homo sapiens) (UniProt P51812); experiment: Binding affinity to wild-type human partial length N- terminal RSK2 kinase domain 1 (M1 to D394 residues) expressed in mammalian expression system assessed as residual binding level at 10 uM by Kinomescan method relative to control
# [21] = target: Ribosomal protein S6 kinase alpha-6 (Homo sapiens) (UniProt Q9UK32); experiment: Binding affinity to wild-type human partial length N- terminal RSK4 kinase domain 1 (M1 to E397 residues) expressed in mammalian expression system assessed as residual binding level at 10 uM by Kinomescan method relative to control
# [22] = target: SRSF protein kinase 1 (Homo sapiens) (UniProt Q96SB4); experiment: Binding affinity to wild-type human full length SRPK1 (M1 to S655 residues) expressed in bacterial expression system assessed as residual binding level at 10 uM by Kinomescan method relative to control
# [23] = target: Mitogen-activated protein kinase kinase kinase 7 (Homo sapiens) (UniProt O43318); experiment: Binding affinity to wild-type human partial length TAK1 (M1 to Q303 residues) expressed in mammalian expression system assessed as residual binding level at 10 uM by Kinomescan method relative to control
# [24] = system: Neutrophil; experiment: Inhibition of PMA-induced NETosis in human neutrophils at 25 uM preincubated for 30 mins followed by PMA stimulation and measured after 3 hrs by Hoechst […] staining based fluorescence microscopic analysis; format: functional, cell-based
# [25] = system: Neutrophil; experiment: Inhibition of PMA-induced superoxide production in C57BL6 mouse neutrophils at 10 uM preincubated for 30 mins followed by PMA stimulation and measured after 30 mins by luminol-lucignenin based luminescence assay; format: functional, cell-based
# Tyrosine-protein kinase Fer (Homo sapiens), sequence (P16591 whole entry, looked up, the tested form may be a part): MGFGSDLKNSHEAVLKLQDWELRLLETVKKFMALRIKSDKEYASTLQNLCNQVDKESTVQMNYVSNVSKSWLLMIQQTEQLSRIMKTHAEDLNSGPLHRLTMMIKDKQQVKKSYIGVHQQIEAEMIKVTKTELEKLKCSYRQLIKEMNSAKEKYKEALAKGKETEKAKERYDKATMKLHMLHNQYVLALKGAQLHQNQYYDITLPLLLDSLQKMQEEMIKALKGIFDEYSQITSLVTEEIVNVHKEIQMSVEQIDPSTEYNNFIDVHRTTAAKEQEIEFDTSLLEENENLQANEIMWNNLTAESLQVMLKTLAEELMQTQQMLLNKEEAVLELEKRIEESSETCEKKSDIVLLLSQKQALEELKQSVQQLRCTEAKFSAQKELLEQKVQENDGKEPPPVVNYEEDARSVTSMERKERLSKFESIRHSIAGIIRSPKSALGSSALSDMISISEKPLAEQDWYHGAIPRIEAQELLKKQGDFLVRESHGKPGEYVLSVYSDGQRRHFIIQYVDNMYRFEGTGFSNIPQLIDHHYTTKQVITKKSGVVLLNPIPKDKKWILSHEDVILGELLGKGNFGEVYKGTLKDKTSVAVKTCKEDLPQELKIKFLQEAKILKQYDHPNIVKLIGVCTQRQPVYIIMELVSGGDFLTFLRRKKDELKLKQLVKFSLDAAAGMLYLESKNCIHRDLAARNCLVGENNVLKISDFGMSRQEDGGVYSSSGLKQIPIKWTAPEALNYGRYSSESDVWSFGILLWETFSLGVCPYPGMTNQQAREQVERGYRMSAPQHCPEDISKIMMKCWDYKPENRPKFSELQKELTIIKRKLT
# Receptor-interacting serine/threonine-protein kinase 1 (Homo sapiens), sequence (Q13546 whole entry, the tested form may be a part): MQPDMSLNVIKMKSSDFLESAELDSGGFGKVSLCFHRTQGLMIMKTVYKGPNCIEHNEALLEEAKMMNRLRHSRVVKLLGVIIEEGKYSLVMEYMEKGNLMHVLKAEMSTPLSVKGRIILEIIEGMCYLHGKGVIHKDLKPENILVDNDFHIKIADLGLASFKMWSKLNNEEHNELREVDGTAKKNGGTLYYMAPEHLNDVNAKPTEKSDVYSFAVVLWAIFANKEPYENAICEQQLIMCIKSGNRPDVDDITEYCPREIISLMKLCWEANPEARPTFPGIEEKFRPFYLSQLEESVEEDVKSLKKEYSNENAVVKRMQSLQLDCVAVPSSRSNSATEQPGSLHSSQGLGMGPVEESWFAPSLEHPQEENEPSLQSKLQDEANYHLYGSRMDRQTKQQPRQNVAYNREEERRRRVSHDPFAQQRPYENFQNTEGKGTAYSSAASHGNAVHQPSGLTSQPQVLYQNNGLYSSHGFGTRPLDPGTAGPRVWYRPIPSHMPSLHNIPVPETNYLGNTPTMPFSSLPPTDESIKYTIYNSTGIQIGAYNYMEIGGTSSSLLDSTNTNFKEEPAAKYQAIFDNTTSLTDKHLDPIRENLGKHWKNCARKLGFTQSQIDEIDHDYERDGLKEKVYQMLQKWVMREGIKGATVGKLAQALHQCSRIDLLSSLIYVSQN
# Mitogen-activated protein kinase 15 (Homo sapiens), sequence (Q8TD08 whole entry, the tested form may be a part): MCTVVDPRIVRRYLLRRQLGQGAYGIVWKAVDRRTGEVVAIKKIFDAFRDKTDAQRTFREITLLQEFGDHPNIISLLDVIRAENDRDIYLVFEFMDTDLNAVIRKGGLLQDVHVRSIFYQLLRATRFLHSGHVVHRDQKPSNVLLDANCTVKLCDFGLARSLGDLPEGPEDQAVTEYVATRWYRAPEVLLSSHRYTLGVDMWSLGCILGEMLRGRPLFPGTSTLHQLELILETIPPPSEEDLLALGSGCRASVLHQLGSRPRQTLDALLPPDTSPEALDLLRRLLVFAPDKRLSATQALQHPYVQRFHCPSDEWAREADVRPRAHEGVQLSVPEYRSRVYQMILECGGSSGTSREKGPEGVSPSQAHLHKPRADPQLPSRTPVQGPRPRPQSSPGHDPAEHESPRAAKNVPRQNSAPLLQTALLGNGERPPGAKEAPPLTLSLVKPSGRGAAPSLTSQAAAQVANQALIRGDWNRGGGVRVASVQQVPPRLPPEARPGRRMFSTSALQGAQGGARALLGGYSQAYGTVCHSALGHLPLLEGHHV
# Ribosomal protein S6 kinase alpha-1 (Homo sapiens), sequence (Q15418 whole entry, the tested form may be a part): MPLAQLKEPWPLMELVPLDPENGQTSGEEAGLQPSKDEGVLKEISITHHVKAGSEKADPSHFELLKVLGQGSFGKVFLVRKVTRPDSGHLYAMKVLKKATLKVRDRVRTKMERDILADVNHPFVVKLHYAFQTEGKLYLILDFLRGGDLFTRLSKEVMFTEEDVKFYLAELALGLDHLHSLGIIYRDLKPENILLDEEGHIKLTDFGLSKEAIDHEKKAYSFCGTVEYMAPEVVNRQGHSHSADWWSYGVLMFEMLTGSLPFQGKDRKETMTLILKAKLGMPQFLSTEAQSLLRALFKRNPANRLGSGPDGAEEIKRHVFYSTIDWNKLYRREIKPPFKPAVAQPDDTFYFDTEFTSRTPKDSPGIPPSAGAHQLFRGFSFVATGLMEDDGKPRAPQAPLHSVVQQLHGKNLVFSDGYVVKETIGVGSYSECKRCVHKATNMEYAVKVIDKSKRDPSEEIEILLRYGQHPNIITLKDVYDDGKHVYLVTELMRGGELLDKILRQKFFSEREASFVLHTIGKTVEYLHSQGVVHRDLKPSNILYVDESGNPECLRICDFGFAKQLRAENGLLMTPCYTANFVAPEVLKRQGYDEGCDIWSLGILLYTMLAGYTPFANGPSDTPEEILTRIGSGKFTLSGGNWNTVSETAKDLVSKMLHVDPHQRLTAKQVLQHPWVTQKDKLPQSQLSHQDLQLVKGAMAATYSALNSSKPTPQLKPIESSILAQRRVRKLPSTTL
# Casein kinase II subunit alpha (Homo sapiens), sequence (P68400 whole entry, looked up, the tested form may be a part): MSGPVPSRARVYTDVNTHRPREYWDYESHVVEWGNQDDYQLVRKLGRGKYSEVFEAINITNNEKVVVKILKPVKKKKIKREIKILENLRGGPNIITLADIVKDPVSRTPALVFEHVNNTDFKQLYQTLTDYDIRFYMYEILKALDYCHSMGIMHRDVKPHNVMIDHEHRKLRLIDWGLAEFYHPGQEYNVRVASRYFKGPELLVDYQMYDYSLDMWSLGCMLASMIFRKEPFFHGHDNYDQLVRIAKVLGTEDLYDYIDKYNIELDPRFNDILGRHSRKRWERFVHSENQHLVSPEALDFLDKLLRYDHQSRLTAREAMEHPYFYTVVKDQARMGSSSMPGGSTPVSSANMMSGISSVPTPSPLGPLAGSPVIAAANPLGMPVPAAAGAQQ
# Ribosomal protein S6 kinase alpha-6 (Homo sapiens), sequence (Q9UK32 whole entry, the tested form may be a part): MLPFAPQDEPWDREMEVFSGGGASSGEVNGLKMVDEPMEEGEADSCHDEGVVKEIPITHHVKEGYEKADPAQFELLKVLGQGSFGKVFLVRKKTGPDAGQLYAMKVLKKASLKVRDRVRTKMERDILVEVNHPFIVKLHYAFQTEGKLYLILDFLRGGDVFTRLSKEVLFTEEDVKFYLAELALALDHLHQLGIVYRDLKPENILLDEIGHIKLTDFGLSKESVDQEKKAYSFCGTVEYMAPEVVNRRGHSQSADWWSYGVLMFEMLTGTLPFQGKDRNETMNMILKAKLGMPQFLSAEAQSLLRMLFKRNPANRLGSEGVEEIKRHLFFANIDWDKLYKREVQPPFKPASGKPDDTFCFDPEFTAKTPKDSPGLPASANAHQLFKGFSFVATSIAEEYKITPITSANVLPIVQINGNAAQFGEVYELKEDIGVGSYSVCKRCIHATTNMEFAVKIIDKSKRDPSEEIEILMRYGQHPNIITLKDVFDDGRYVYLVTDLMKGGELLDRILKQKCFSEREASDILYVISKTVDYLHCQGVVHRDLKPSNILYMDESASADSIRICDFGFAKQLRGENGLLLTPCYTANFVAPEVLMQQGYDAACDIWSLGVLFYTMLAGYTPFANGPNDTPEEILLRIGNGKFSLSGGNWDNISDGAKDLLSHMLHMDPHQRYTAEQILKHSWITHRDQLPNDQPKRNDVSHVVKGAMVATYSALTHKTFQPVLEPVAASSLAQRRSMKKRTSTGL
# Mitogen-activated protein kinase kinase kinase 7 (Homo sapiens), sequence (O43318 whole entry, the tested form may be a part): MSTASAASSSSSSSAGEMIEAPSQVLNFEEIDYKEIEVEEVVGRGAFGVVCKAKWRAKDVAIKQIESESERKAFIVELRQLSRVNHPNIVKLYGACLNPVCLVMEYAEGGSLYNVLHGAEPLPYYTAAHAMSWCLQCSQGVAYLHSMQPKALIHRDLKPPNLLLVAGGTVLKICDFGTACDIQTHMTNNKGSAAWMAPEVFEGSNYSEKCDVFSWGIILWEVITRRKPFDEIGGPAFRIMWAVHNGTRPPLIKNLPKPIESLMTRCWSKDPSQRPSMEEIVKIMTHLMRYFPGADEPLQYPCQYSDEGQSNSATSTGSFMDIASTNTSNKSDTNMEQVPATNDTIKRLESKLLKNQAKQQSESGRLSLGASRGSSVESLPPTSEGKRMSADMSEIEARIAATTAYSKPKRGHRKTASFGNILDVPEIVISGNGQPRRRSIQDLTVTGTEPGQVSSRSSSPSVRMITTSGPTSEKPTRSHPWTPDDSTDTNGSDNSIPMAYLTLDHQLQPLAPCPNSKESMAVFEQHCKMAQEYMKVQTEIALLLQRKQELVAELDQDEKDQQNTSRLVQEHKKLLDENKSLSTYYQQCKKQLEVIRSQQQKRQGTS
# Death-associated protein kinase 3 (Homo sapiens), sequence (O43293 whole entry, looked up, the tested form may be a part): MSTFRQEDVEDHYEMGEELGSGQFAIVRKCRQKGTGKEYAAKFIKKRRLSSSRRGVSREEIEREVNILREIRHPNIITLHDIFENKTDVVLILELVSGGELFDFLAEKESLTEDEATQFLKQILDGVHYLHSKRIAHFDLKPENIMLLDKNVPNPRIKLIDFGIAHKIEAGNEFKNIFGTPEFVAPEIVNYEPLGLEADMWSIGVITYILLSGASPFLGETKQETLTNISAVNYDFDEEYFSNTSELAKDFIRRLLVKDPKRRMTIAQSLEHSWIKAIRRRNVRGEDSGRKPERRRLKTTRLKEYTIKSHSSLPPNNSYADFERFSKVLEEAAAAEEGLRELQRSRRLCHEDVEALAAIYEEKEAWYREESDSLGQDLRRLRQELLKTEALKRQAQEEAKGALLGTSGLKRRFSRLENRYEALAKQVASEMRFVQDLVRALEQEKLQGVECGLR
compound,measurement,setting,value
CC(C)N1C(=O)C(NCCCN(C)C)=C(c2cn(C)c3ccccc23)C1=O.Cl,Activity,[1],98%
same,Activity,[2],100%
same,Activity,[3],98%
same,Activity,[4],96%
same,Activity,[5],100%
same,Activity,[6],95%
same,Activity,[7],97%
same,Activity,[8],100%
same,Activity,[9],77%
same,Activity,[10],74%
same,Activity,[11],100%
same,Activity,[12],71%
same,Activity,[13],100%
same,Activity,[14],90%
same,Activity,[15],100%
same,Activity,[16],100%
same,Activity,[17],96%
same,Activity,[18],100%
same,Activity,[19],98%
same,Activity,[20],92%
same,Activity,[21],94%
same,Activity,[22],83%
same,Activity,[23],78%
same,inhibition,[24],Active
same,inhibition,[25],inactive
